Laboratory results: PubChem BioAssay (NCI)
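Dose response: 5 concentrations. Exposure: 48 h. Format: 96-well plates. Endpoint: linear interpolation; highest concentration if not reached. The concentration for full growth arrest is given as TGI.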

Key:
Assay in all cases: DTP human tumour cell line panel, 48 h
NCI-H226 lung = system: NCI-H226 lung
UO-31 renal = system: UO-31 renal
DMS 273 small cell lung = system: DMS 273 small cell lung
OVCAR-5 ovarian = system: OVCAR-5 ovarian
SNB-78 CNS = system: SNB-78 CNS
HOP-62 NSCLC = system: HOP-62 NSCLC
IGROV1 ovarian = system: IGROV1 ovarian
OVCAR-8 ovarian = system: OVCAR-8 ovarian
SF-268 CNS = system: SF-268 CNS
COLO 205 colon = system: COLO 205 colon
TK-10 renal = system: TK-10 renal
SW-620 colon = system: SW-620 colon
LXFL 529 NSCLC = system: LXFL 529 NSCLC
K-562 leukemia = system: K-562 leukemia
KM12 colon = system: KM12 colon
CAKI-1 renal = system: CAKI-1 renal
ACHN renal = system: ACHN renal
OVCAR-4 ovarian = system: OVCAR-4 ovarian
A498 renal = system: A498 renal
SF-295 CNS = system: SF-295 CNS
UACC-257 melanoma = system: UACC-257 melanoma
SNB-19 CNS = system: SNB-19 CNS
DLD-1 colon = system: DLD-1 colon
SNB-75 CNS = system: SNB-75 CNS
U251 CNS = system: U251 CNS
XF 498 CNS = system: XF 498 CNS
EKVX NSCLC = system: EKVX NSCLC
SK-MEL-28 melanoma = system: SK-MEL-28 melanoma
786-0 renal = system: 786-0 renal
MALME-3M melanoma = system: MALME-3M melanoma
DMS 114 small cell lung = system: DMS 114 small cell lung
OVCAR-3 ovarian = system: OVCAR-3 ovarian
CCRF-CEM leukemia = system: CCRF-CEM leukemia
MOLT-4 leukemia = system: MOLT-4 leukemia
KM20L2 colon = system: KM20L2 colon
LOX IMVI melanoma = system: LOX IMVI melanoma
NCI-H460 lung = system: NCI-H460 lung
HOP-92 NSCLC = system: HOP-92 NSCLC
A549 NSCLC = system: A549 NSCLC
M19-MEL melanoma = system: M19-MEL melanoma
HCC-2998 colon = system: HCC-2998 colon
RPMI-8226 leukemia = system: RPMI-8226 leukemia
HT29 colon = system: HT29 colon
SF-539 CNS = system: SF-539 CNS
M14 melanoma = system: M14 melanoma
SK-MEL-2 melanoma = system: SK-MEL-2 melanoma
HCT-15 colon = system: HCT-15 colon
NCI-H23 lung = system: NCI-H23 lung
NCI-H522 lung = system: NCI-H522 lung
HCT-116 colon = system: HCT-116 colon
SK-MEL-5 melanoma = system: SK-MEL-5 melanoma
RXF 393 renal = system: RXF 393 renal
UACC-62 melanoma = system: UACC-62 melanoma
SN12C renal = system: SN12C renal
SR leukemia = system: SR leukemia
HOP-18 NSCLC = system: HOP-18 NSCLC
HL-60(TB) leukemia = system: HL-60(TB) leukemia
RXF-631 renal = system: RXF-631 renal
SK-OV-3 ovarian = system: SK-OV-3 ovarian

Compound: O=C(NC(=Nc1ccccc1)SCCSC(=Nc1ccccc1)NC(=O)c1ccccc1)c1ccccc1
- TGI (NCI-H226 lung): > 100 µM
- TGI (UO-31 renal): 88.2 µM
- TGI (DMS 273 small cell lung): > 100 µM
- TGI (OVCAR-5 ovarian): > 100 µM
- TGI (SNB-78 CNS): > 100 µM
- TGI (HOP-62 NSCLC): > 100 µM
- TGI (IGROV1 ovarian): > 100 µM
- TGI (OVCAR-8 ovarian): > 100 µM
- TGI (SF-268 CNS): > 100 µM
- TGI (COLO 205 colon): > 100 µM
- TGI (TK-10 renal): > 100 µM
- TGI (SW-620 colon): > 100 µM
- TGI (LXFL 529 NSCLC): > 100 µM
- TGI (K-562 leukemia): > 100 µM
- TGI (KM12 colon): > 100 µM
- TGI (CAKI-1 renal): > 100 µM
- TGI (ACHN renal): > 100 µM
- TGI (OVCAR-4 ovarian): > 100 µM
- TGI (A498 renal): > 100 µM
- TGI (SF-295 CNS): > 100 µM
- TGI (UACC-257 melanoma): > 100 µM
- TGI (SNB-19 CNS): > 100 µM
- TGI (DLD-1 colon): > 100 µM
- TGI (SNB-75 CNS): > 100 µM
- TGI (U251 CNS): > 100 µM
- TGI (XF 498 CNS): > 100 µM
- TGI (EKVX NSCLC): > 100 µM
- TGI (SK-MEL-28 melanoma): > 100 µM
- TGI (786-0 renal): > 100 µM
- TGI (MALME-3M melanoma): > 100 µM
- TGI (DMS 114 small cell lung): > 100 µM
- TGI (OVCAR-3 ovarian): > 100 µM
- TGI (CCRF-CEM leukemia): > 100 µM
- TGI (MOLT-4 leukemia): > 100 µM
- TGI (KM20L2 colon): > 100 µM
- TGI (LOX IMVI melanoma): > 100 µM
- TGI (NCI-H460 lung): > 100 µM
- TGI (HOP-92 NSCLC): 58.7 µM
- TGI (A549 NSCLC): > 100 µM
- TGI (M19-MEL melanoma): > 100 µM
- TGI (HCC-2998 colon): > 100 µM
- TGI (RPMI-8226 leukemia): > 100 µM
- TGI (HT29 colon): > 100 µM
- TGI (SF-539 CNS): > 100 µM
- TGI (M14 melanoma): > 100 µM
- TGI (SK-MEL-2 melanoma): > 100 µM
- TGI (HCT-15 colon): > 100 µM
- TGI (NCI-H23 lung): > 100 µM
- TGI (NCI-H522 lung): 73 µM
- TGI (HCT-116 colon): > 100 µM
- TGI (SK-MEL-5 melanoma): > 100 µM
- TGI (RXF 393 renal): 95.6 µM
- TGI (UACC-62 melanoma): > 100 µM
- TGI (SN12C renal): > 100 µM

Compound: CSc1cnc2ccccc2c1Sc1cn(C)c2ccccc2c1=O
- TGI (NCI-H226 lung): 73.8 µM
- TGI (UO-31 renal): > 100 µM
- TGI (DMS 273 small cell lung): > 100 µM
- TGI (OVCAR-5 ovarian): > 100 µM
- TGI (HOP-62 NSCLC): 57.3 µM
- TGI (IGROV1 ovarian): > 100 µM
- TGI (OVCAR-8 ovarian): 45 µM
- TGI (SF-268 CNS): > 100 µM
- TGI (COLO 205 colon): > 100 µM
- TGI (TK-10 renal): > 100 µM
- TGI (SW-620 colon): > 100 µM
- TGI (K-562 leukemia): > 100 µM
- TGI (KM12 colon): > 100 µM
- TGI (ACHN renal): > 100 µM
- TGI (OVCAR-4 ovarian): > 100 µM
- TGI (A498 renal): > 100 µM
- TGI (SF-295 CNS): > 100 µM
- TGI (SR leukemia): > 100 µM
- TGI (UACC-257 melanoma): > 100 µM
- TGI (SNB-19 CNS): 83.3 µM
- TGI (DLD-1 colon): > 100 µM
- TGI (SNB-75 CNS): 46.8 µM
- TGI (U251 CNS): 38.6 µM
- TGI (XF 498 CNS): 70.8 µM
- TGI (EKVX NSCLC): > 100 µM
- TGI (SK-MEL-28 melanoma): > 100 µM
- TGI (786-0 renal): > 100 µM
- TGI (MALME-3M melanoma): > 100 µM
- TGI (DMS 114 small cell lung): 67.7 µM
- TGI (OVCAR-3 ovarian): 95.5 µM
- TGI (CCRF-CEM leukemia): > 100 µM
- TGI (HOP-18 NSCLC): > 100 µM
- TGI (HL-60(TB) leukemia): > 100 µM
- TGI (MOLT-4 leukemia): > 100 µM
- TGI (KM20L2 colon): > 100 µM
- TGI (RXF-631 renal): 42.5 µM
- TGI (LOX IMVI melanoma): > 100 µM
- TGI (NCI-H460 lung): > 100 µM
- TGI (SK-OV-3 ovarian): 44.5 µM
- TGI (HOP-92 NSCLC): 67 µM
- TGI (A549 NSCLC): > 100 µM
- TGI (M19-MEL melanoma): > 100 µM
- TGI (HCC-2998 colon): > 100 µM
- TGI (RPMI-8226 leukemia): > 100 µM
- TGI (HT29 colon): > 100 µM
- TGI (SF-539 CNS): > 100 µM
- TGI (M14 melanoma): > 100 µM
- TGI (SK-MEL-2 melanoma): > 100 µM
- TGI (HCT-15 colon): > 100 µM
- TGI (NCI-H23 lung): 65.7 µM
- TGI (HCT-116 colon): > 100 µM
- TGI (SK-MEL-5 melanoma): > 100 µM
- TGI (RXF 393 renal): > 100 µM
- TGI (UACC-62 melanoma): > 100 µM
- TGI (SN12C renal): > 100 µM
